In patent US20230277483A1, “COMPOSITIONS AND METHODS TO TREAT INFLAMMATION” (University of Iowa Research Foundation, priority 2022, published 2023):

What was measured:
Pg (ATCC 49417) = experiment: Pg proliferation measured by OD600 under HCA; assay type: cell-based, Porphyromonas gingivalis; conditions: HCA at 0.1 and 10 μM; after 48 and 72 hrs vs untreated controls
Protocol: Pg (ATCC 49417), a key pathogen of periodontitis, was cultured at 24 well-plates with BHI medium at 90% N2, 5% H2, 5% CO2. HCA at 0.1 and 10 μM was applied.

Pg = Pg attachment (early biofilm formation, colonization) on culture plates; assay type: cell-based, Porphyromonas gingivalis
Protocol: Sg metabolites promote commensal bacterial proliferation and inhibit periodontopathogenic bacterial proliferation and colonization. Commensal bacteria, Sg, S. sanguinis (Ss, ATCC10556), S. mitis (Sm, ATCC49456) and S. oralis (So, ATCC 35037) were cultured in BHI medium. In addition, pathogenic bacteria, Pg was cultured using BHI and Tf (ATCC43037), and Td (ATCC 35405) were grown in Thioglycollate medium with vitamin K and Hemin in 90% N2, 5% H2, 5% CO2. The Sg metabolites were diluted using DMEM and added to the bacteria with the similar OD600 value. The same amount of DMEM was used as a control. During the exponential growth of bacteria, the OD600 value was measured to determine the proliferation. […] In addition, to determine the function of Sg metabolites on Pg colonization, Pg were inoculated in 24-well plates containing BHI or BHI supplemented with DMEM or Sg metabolites. […]
HCA promotes proliferation of health related bacteria and inhibits proliferation and attachment of periodontopathogenic bacteria. […] The composition of the microbiomes was determined by amplifying the V3 and V4 regions of the 16S rRNA genes. Raw data in FASTQ format were filtered and denoised using DADA2 (Divisive Amplicon Denoising Algorithm) to generate amplicon sequence variants (ASV) or operational taxonomical units (OTUs) that were then analyzed by QIIME2.

[1] = system: primary human gingival fibroblasts (HGF); experiment: MTT toxicity assay; assay type: cell-based; conditions: HCA from 0.1 to 50 μM; 24 and 48 hours
[2] = system: epidydimal white adipose tissues (eWAT); experiment: eWAT explants from mice on a HFD for 16 weeks; assay type: cell-based, mouse; conditions: HCA at 0.5 and 1.0 μM; 16 hours post treatment
Protocol: In addition, freshly isolated epidydimal white adipose tissues (eWAT) from mice on a HFD for 16 weeks were minced and cultured in 24-well plates and treated with HCA at 0.5 and 1.0 μM in DMEM/F-12 containing 10% cosmic calf serum (CCS) and 1% penicillin-streptomycin (basal growth media, BGM). […] These preliminary data are strong evidence that Sg metabolites have the potential to modulate host inflammatory responses and attenuate inflammation.

3T3-L1 = experiment: TNF-induced inflammation in differentiated white adipocytes; assay type: cell-based, mouse; conditions: 10 ng/ml TNF with 0.1 uM HCA, 24 hr
Protocol: 3T3-L1 (CL-173-ATCC, PMID. 26451286) were grown in DMEM containing 10% fetal bovine serum (FBS) and 1% pen/strep. Cells were induced to differentiate 2 d after reaching confluence by supplementing growth media with 3 nM insulin (Humulin R, Lily, Humulin R U-500, 0002-8501-01), 0.25 nM dexamethasone (Sigma, D4902), 2 uM rosiglitazone (Sigma, R2408) and 0.5 mM 1-methyl-3-isobutyl-xanthine (Sigma, I5879). From day 3 until day 7, cells were maintained in growth media supplemented with 3 nM insulin after which the mature adipocytes were maintained in growth media. Cells were then incubated for 24 hr in the presence or absence of 10 ng/ml TNF (PeproTech, 315-01A) with or without 0.1 uM 6-Hydroxycaproic acid (HCA, Sigma, 515302).
To determine the effects of HCA on adipose-mediated inflammation, 3T3-L1 cells were differentiated into white adipocytes and then exposed to the pro-inflammatory cytokine tumor necrosis factor alpha (TNFa).

O=C(O)CCCCCO [HCA, 6-hydroxycaproic acid]
OD600 value of Pg (Pg (ATCC 49417)): significantly reduced
attachment of P. gingivalis (Pg; HCA at 0.01 μM): less of an effect
attachment of P. gingivalis (Pg; HCA at 0.05 μM vs untreated control, optical density): significantly reduced
toxicity (MTT assay) [1]: No toxicity
protein level of IL-6 in cultured media [2]: significantly reduced
transcripts of IL-6, IL-1β, and Nos2 [2]: significantly reduced
TNF-induced IL-6 secretion (3T3-L1): significantly reduced
